From PubChem BioAssay (NCI) come the findings set out here.

Some test systems named below: HCC-2998 colon; HCT-116 colon; HOP-62 NSCLC; HOP-92 NSCLC; K-562 leukemia; KM12 colon; M14 melanoma; NCI-H226 lung; SNB-19 CNS; T-47D breast.
Holding throughout (test): NCI tumour cell line growth inhibition, 48 h

Each structure is given as a SMILES string. Several values for one entry are separate records, joined by “and”; a condition that tells them apart may be missing. Identical values can stand only once.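 Interpolation was linear, between the two tested concentrations surrounding the appropriate level; five concentrations were tested over 48 hours in 96-well plates. GI50 = concentration required for 50% inhibition of growth. TGI: total growth inhibition.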

On to `CS(=O)(=O)CCNCc1ccc(-c2ccc3ncnc(Nc4ccc(OCc5ccccc5)c(Br)c4)c3c2)o1`, for which the GI50 with HCC-2998 colon is 4.56 µM; in the test with HCT-116 colon it was 5.26 µM; in the test on HOP-62 NSCLC, 11.2 µM; in the test on HOP-92 NSCLC it was 3.49 µM; in the test with K-562 leukemia, 7.72 µM; with KM12 colon, 9.06 µM. Also, the GI50 in the test on M14 melanoma is 4.98 µM; in the test on NCI-H226 lung, 10.1 µM; in the test with SNB-19 CNS, over 20.8 µM; in the test with T-47D breast it was 0.821 µM. Also, the TGI was 9.11 µM with HCC-2998 colon; 11.8 µM in the test on HCT-116 colon; over 25 µM in the test with HOP-62 NSCLC; 12.5 µM in the test on HOP-92 NSCLC; over 20.6 µM in the test with K-562 leukemia; over 25 µM in the test on KM12 colon. For the same compound, the TGI in the test on M14 melanoma is 10.3 µM; in the test on NCI-H226 lung, over 25 µM; in the test on SNB-19 CNS it was over 25 µM; with T-47D breast, 17.4 µM.
With `Cc1cc(=O)oc2c(C)c(O)ccc12`, the TGI in the test with HCC-2998 colon, with HCT-116 colon, in the test with HOP-62 NSCLC, with HOP-92 NSCLC, in the test on K-562 leukemia and in the test with KM12 colon was over 100 µM throughout. The TGI with M14 melanoma, with NCI-H226 lung, in the test on SNB-19 CNS and in the test on T-47D breast was over 100 µM throughout.
On to `COc1cccc(/C=C/[N+](=O)[O-])c1`, for which the GI50 with HCC-2998 colon was 1.93 µM; in the test with HCT-116 colon it was 1.49 µM; in the test on HOP-62 NSCLC, 12.8 µM; in the test with HOP-92 NSCLC, 15.9 µM; in the test on K-562 leukemia, 2.92 µM; in the test on KM12 colon, 2.54 µM. Moreover, the GI50 is 2.01 µM in the test on M14 melanoma, 26.2 µM with NCI-H226 lung, 16.5 µM in the test with SNB-19 CNS and 2.51 µM in the test with T-47D breast. The TGI in the test on HCC-2998 colon came to 3.51 µM; with HCT-116 colon it was 3.31 µM; in the test with HOP-62 NSCLC it was 26.6 µM; in the test with HOP-92 NSCLC it was 34.6 µM; with K-562 leukemia, 11.5 µM; in the test on KM12 colon, 7.35 µM. Further, the TGI was found to be 4.63 µM in the test with M14 melanoma, 65.3 µM with NCI-H226 lung, 37 µM in the test on SNB-19 CNS and 9.6 µM in the test with T-47D breast.
Consider `Cc1ccc(Cc2cnc(NC(=O)/C=C/c3cccc(C)c3)s2)cc1`, for which the GI50 is 0.296 µM in the test on HCC-2998 colon; 0.0746 µM in the test on HCT-116 colon; 0.238 µM in the test on HOP-62 NSCLC; 0.0793 µM with HOP-92 NSCLC; 0.0469 µM with K-562 leukemia; 0.14 µM with KM12 colon. The GI50 in the test on M14 melanoma was 0.0808 µM; in the test with NCI-H226 lung it was 0.608 µM; in the test on SNB-19 CNS, 0.224 µM; in the test with T-47D breast, 0.577 µM. Moreover, the TGI in the test on HCC-2998 colon was over 37.1 µM; with HCT-116 colon it was 2.4 µM; in the test with HOP-62 NSCLC, 9.3 µM; with HOP-92 NSCLC, over 57 µM; in the test on K-562 leukemia, over 100 µM; in the test with KM12 colon, over 48.4 µM. The TGI with M14 melanoma was 0.843 µM; with SNB-19 CNS, 23.1 µM; with T-47D breast, over 100 µM.
Consider `Cc1cc(O)cc2c1[C@]1(C)CCC3C(C)(C)CCC[C@]3(C)[C@H]1C2` (some centres undefined), for which the GI50 was 22.1 µM in the test with HCC-2998 colon; 19 µM in the test with HCT-116 colon; 20.6 µM in the test on HOP-62 NSCLC; 18.4 µM in the test with HOP-92 NSCLC; 67.4 µM in the test on K-562 leukemia; 20 µM in the test on KM12 colon. Moreover, the GI50 was 21.6 µM with M14 melanoma, 22.4 µM in the test on NCI-H226 lung, 20.8 µM with SNB-19 CNS and 16.7 µM in the test on T-47D breast. Also, the TGI in the test with HCC-2998 colon was 38 µM; in the test on HCT-116 colon, 33 µM; with HOP-62 NSCLC, 35.5 µM; with HOP-92 NSCLC, 35.3 µM; in the test with K-562 leukemia it was over 100 µM; with KM12 colon it was 35.3 µM. Moreover, the TGI is 37.6 µM in the test on M14 melanoma, 41.4 µM with NCI-H226 lung, 35.7 µM in the test on SNB-19 CNS and 43.3 µM in the test with T-47D breast.
On to `C=C(CN1CCN(c2cccc(C(F)(F)F)n2)CC1)c1ccc(C(=O)Nc2ccccc2N)cc1`, for which the GI50 is 9.63 µM in the test on HCC-2998 colon; 0.537 µM and 0.402 µM in the test with HCT-116 colon; 2.21 µM and 0.877 µM in the test on HOP-62 NSCLC; 2 µM with HOP-92 NSCLC; 0.623 µM in the test on K-562 leukemia; 0.668 µM and 0.455 µM in the test on KM12 colon. The GI50 in the test with M14 melanoma is 0.966 µM and 0.436 µM; with NCI-H226 lung it was 13.4 µM and 20.9 µM; with SNB-19 CNS, 0.65 µM and 0.708 µM; in the test on T-47D breast, 3.01 µM and 0.616 µM. In addition, the TGI with HCC-2998 colon is over 100 µM; in the test with HCT-116 colon, over 100 µM; in the test on HOP-62 NSCLC, 21.4 µM and 7.51 µM; in the test on HOP-92 NSCLC it was 43.9 µM; with K-562 leukemia it was over 100 µM; with KM12 colon, over 100 µM. In addition, the TGI was over 100 µM in the test with M14 melanoma; over 100 µM with NCI-H226 lung; 29.3 µM and 23.5 µM with SNB-19 CNS; over 100 µM in the test on T-47D breast.
Turning to `CCC(=O)Nc1ccccc1C#C/C=C\C#Cc1ccccc1SC`, the GI50 in the test with HCC-2998 colon is 5.09 µM; in the test with HCT-116 colon, 5.61 µM; in the test with HOP-62 NSCLC, 10 µM; with HOP-92 NSCLC, 3.96 µM; in the test with K-562 leukemia, 6.37 µM; in the test on KM12 colon it was 5.27 µM. Also, the GI50 in the test with M14 melanoma is 12 µM; in the test with NCI-H226 lung, 16.9 µM; with SNB-19 CNS, 43.8 µM; with T-47D breast, 8.96 µM. For the same compound, the TGI with HCC-2998 colon is 27.3 µM; with HCT-116 colon, over 100 µM; in the test with HOP-62 NSCLC it was over 100 µM; in the test on HOP-92 NSCLC, 78.7 µM; with K-562 leukemia, over 100 µM; in the test with KM12 colon, over 100 µM. For the same compound, the TGI with M14 melanoma, in the test on NCI-H226 lung, with SNB-19 CNS and in the test with T-47D breast was over 100 µM throughout.
